Measured values reported in patent US11701369B2, “Polymeric bile acid derivatives inhibit Hepatitis B and D virus and NTCP transport” (Huahui Health Ltd., priority 2014, dated 2023).
Entries after “also recorded” stand apart in the source; their conditions may differ. Read-outs that look alike come from different tables or passages of the source.

Experiments:
NTCP [1] = target: T1, NTCP (Homo sapiens, UniProt Q14973); assay: FITC-preS1 peptide binding assay
T1 construct: expressed in transfected cells
T1 sequence (Q14973 1-349): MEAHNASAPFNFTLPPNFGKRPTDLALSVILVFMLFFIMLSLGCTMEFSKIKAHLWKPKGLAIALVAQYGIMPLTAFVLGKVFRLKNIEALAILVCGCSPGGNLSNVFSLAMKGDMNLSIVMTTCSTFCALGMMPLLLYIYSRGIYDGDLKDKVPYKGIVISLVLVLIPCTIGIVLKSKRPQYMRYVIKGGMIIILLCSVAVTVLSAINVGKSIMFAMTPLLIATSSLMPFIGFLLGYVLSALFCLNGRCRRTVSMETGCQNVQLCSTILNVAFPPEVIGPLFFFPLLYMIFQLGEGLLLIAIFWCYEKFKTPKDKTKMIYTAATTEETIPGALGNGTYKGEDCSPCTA
Procedure: FITC-preS1 peptide binding assay. NTCP expressing cells were cultured in PTH maintenance medium (PMM) for 24 hrs before conducting this assay. For Immunofluorescence microscopy, cells were incubated with 400 nM FITC-pre-S1 peptide diluted in WME or PMM at 37° C. for about 2-3 hrs. Subsequently, cells were washed once by WME, and then directly visualized with a Fluorescence Microscope.

HepG2-NTCP cells = assay: In vitro cytotoxicity on HepG2-NTCP cell line; assay type: cell-based
Procedure: FIG. 6 Toxicity of 3UT(NQL-012), DiU(NQL-009) and 3TPT(NQL-018) in cell cultures. HepG2-NTCP cells were incubated with 3UT(NQL-012), DiU(NQL-009) or 3TPT(NQL-018) at indicated concentrations for 48 hrs, cell viability was evaluated and images were captured at 5 dpi.
In vitro cytotoxicity of PBADs. We also conducted experiments to determine the LD50 on HepG2-NTCP cell line of the three PBADs (3-UT (NQL-012), DIU (NQL-009), 3TPT (NQL-018)). We treated cells by different concentrations of PBADs for 48 hrs and captured the images of cells after they were further cultured for 3 days in PMM. […] No detectable cytotoxicity was observed upon treatment of DIU(NQL-009) and 3TPT(NQL-018) up to 200 μM, which is 2000-4000 folds higher than its inhibitory concentration for HBV infection.

HBV [2] = assay: HBV infection assay on HepG2-NTCP cells (secreted HBeAg by ELISA); assay type: cell-based, Hepatitis B virus; settings: for inhibition of HBV infection (in words): secreted HBeAg
Procedure: (§1) HBV and HDV infection assay. HepG2NTCP Cells were cultured in PMM for 12-24 hrs before infection, and then inoculated with 200 multiplicities of genome equivalents (mge) of HBV, or 500 mge of HDV in the presence of 5% PEG8000 in PMM at 37° C. for about 24 hrs. Chemicals to be tested were added to the cells as indicated in the specific assays. The inoculum was replenished by PMM post infection. The infections were detected at day 5 post infection (dpi).
ELISA assay for the detection of HBeAg and HBsAg. ELISA kits for HBeAg and HBsAg detection were from Wantai Pharm Inc. (Beijing, China). Supernatant from infected HepG2NTCP cells was collected on 2-5 days post infection. The secreted HBeAg and HBsAg in the culture medium was measured with a commercial kit from Wantai Pharm Inc (Beijing, China) by following the manufactory's instructions.

HBV [3] = assay: In vitro stability: incubation with HBV inocula before infection, HBeAg ELISA; assay type: cell-based, Hepatitis B virus; settings: incubated with HBV inocula for different times before infection, HBeAg at 5 dpi
Procedure: FIG. 10 The influence of the linkage groups on the in vitro stability of PBADs. TUDCA, NQL018, NQL044, and NQL055 were incubated with HBV inocula of different times before viral infection, and present in the inocula during infection period. The level of secreted HBeAg was detected by ELISA at 5 dpi.
The in vitro stability of PBADs could PBADs could be enhanced by optimization of the linkage bond. We conducted stability analysis of several PBADs with similar structure but of different linkage. […] This indicates the in vitro and in vivo stability is to a large extent determined by the feature of the linkage groups.

HBV [4] = assay: HBV infection assay on HepaRG cells (HBsAg and HBeAg ELISA); assay type: cell-based, Hepatitis B virus; settings: HBsAg and HBeAg at 5 dpi
Procedure: FIG. 11 HepaRG cells were infected with HBV in the presence of indicated PBADs. The level of secreted HBsAg and HBeAg was detected by ELISA at 5 dpi.
The antiviral potency of PBADs is also repeatable on other HBV infection system (HepaRG) with similar inhibition profile. […] HBV infection was conducted in the presence of NQL028, NQL018, NQL029, NQL019 and NQL021, all of which were bis-ester based PBADs with different linkage length.

HDV = HDV infection assay on HepG2-NTCP cells (intracellular delta antigen staining); assay type: cell-based, Hepatitis D virus
Procedure: as §1
Immunostaining assay. For HBV infection, infected cells were washed twice with PBS and fixed in 3.7% paraformaldehyde (PFA) at room temperature for 10 mins. Subsequently, cells were permeabilized with 0.5% Trition X-100/PBS for 10 mins at room temperature, blocked with 3% BSA at 37° C. for 1 hour, and followed by incubating with 5 μg/ml mouse mAb1C10 which recognizes HBcAg, and followed by staining with FITC-conjugated secondary antibody. Nucleus was stained with DAPI in blue. The stained cells were imaged with the fluorescence microscope (Nikon). For HDV infection, on 5 dpi, HDV infected cells were fixed with 100% methanol at room temperature for 10 mins, intracellular delta antigens were then stained with 5 μg/ml of FITC conjugated 4G5 and nucleus were stained with DAPI in blue. Images were collected by an Eclipse Ti Fluorescence Microscope (Nikon) and a representative picture is shown.

NTCP [5] = target: T1, NTCP; assay: [3H] taurocholate uptake assay on HepG2-NTCP cells; assay type: cell-based; settings: for inhibition of NTCP substrate uptake (in words): co-incubation assay, [3H] taurocholate, 10 min; for IC50: pretreatment assay, HepG2-NTCP cells pretreated 2 hrs before uptake assay, read-out: IC50 for inhibiting NTCP-mediated [3H] taurocholate uptake
Procedure: [3H] substrate uptake assay. [3H]taurocholate uptake assay was conducted following a protocol as previously described(60). In general, HepG2-NTCP cells were cultured in PMM for 12-24 hrs, then were treated with or without indicated chemicals before uptake assay. For substrate uptake assay, cells were generally incubated with 0.5 μl (0.5 μCi) [3H]-taurocholate dissolved in Na+ Ringer's solutions for 10 mins at 37° C. with or without the presence of chemicals. Subsequently, cells were washed once by PBS and lysed by 100 μl of 1% TritonX-100 in H2O for 5 mins at room temperature. The lysate was transferred into liquid scintillation tube and mixed with 900 μl liquid scintillation cocktail (Ultima GOLD™ XR) (Perkin Elmer, USA). Liquid scintillation counting was performed on a Perkin Elmer 1450 LSC Liquid Scintillation Counter and Luminescence Counter.

[6] = Hepatitis B virus, read-out: IC50 for inhibiting HBV infection, HepG2-NTCP cells, PBAD present during infection, HBeAg in medium at 5 dpi

Row | SMILES | blocking of FITC-preS1 binding to NTCP (in words) (NTCP [1]; HepG2-NTCP cells, pretreatment versus co-incubation, 3 hrs) | concentration up to which no detectable cytotoxicity was observed (HepG2-NTCP cells; human, 48 h) | inhibition of HBV infection (in words) (HBV [2]; HepG2-NTCP cells) | IC50 (HBV [2]; [6]) | IC50 (HBV [2]; read-out: IC50 for inhibiting HBV infection, HepG2-NTCP cells, PBAD present during infection, HBeAg in medium at 5 dpi) | in vitro stability (antiviral potency after long incubation with the inoculum) (HBV [3]) | inhibition of HBV infection on HepaRG cells (in words) (HBV [4]) | inhibition of HDV infection (in words) (HDV) | inhibition of NTCP substrate uptake (in words) (NTCP [5]) | IC50 (NTCP [5]) | LD50 (HepG2-NTCP cells; HepG2-NTCP, 48 hrs treatment, then 3 days culture in PMM) | effect on FITC-preS1 peptide at high concentration (NTCP [1]; high concentration of compound)
1 | C[C@H](CCC(=O)NCCS(=O)(=O)O)[C@H]1CC[C@H]2[C@@H]3[C@@H](O)CC4C[C@H](OC(=O)CCCC(=O)O[C@@H]5CC[C@@]6(C)C(C5)C[C@H](O)[C@H]5[C@@H]7CC[C@H]([C@H](C)CCC(=O)NCCS(=O)(=O)O)[C@@]7(C)CC[C@@H]56)CC[C@]4(C)[C@H]3CC[C@]12C (stereo in doubt) [NQL-018] | effect of pretreatment of 3TPT(NQL-018) was not as strong as that of co-incubation | 200 µM | high antiviral activity; also recorded: greatly improved potency | 51 nM | 51 nM | not stable upon long time incubation with the inoculum; also recorded: decreased activity after long time incubation | inhibited HBV infection | high antiviral activity; also recorded: greatly improved potency | significantly higher efficiency than that of TUDCA | 58.7 nM | – | –
2 | C[C@H](CCC(=O)O[C@H]1CC[C@@]2(C)C(C1)C[C@H](O)C1[C@H]3CC[C@H]([C@H](C)CCC(=O)NCCS(=O)(=O)O)[C@@]3(C)CC[C@H]12)[C@H]1CC[C@@H]2C3[C@@H](CC[C@@]21C)[C@@]1(C)CC[C@H](O)CC1C[C@@H]3O (stereo partly shown) [NQL-012] | – | – | high antiviral activity; also recorded: greatly improved potency | 100 nM | – | – | – | high antiviral activity; also recorded: greatly improved potency | significantly higher efficiency than that of TUDCA | 109 nM | ~25 µM | –
3 | C[C@H](CCC(=O)O[C@H]1CC[C@@]2(C)C(C1)C[C@H](O)C1[C@H]3CC[C@H]([C@H](C)CCC(=O)O[C@H]4CC[C@@]5(C)C(C4)C[C@H](O)C4[C@H]6CC[C@H]([C@H](C)CCC(=O)NCCS(=O)(=O)O)[C@@]6(C)CC[C@H]45)[C@@]3(C)CC[C@H]12)[C@H]1CC[C@@H]2C3[C@@H](CC[C@@]21C)[C@@]1(C)CC[C@H](O)CC1C[C@@H]3O (stereo partly shown) [NQL-016] | – | – | not as high as the dimeric counterparts | – | – | – | – | not as high as the dimeric counterparts | – | – | – | aggregation of FITC-preS1 peptide
